Experimental data taken from publication PMC9401498 (Clinical Cancer Research, 2021).

System: advanced and/or treatment-refractory solid tumors
Assay: Antitumor activity by RECIST v1.1, all solid tumors
Type: in vivo, human
[1] = All dose expansion (N = 58), number (percent) of efficacy evaluable patients

For `O=C(Cc1cccc(OC(F)(F)F)c1)Nc1ccc(CCCCc2nnc(NC(=O)Cc3ccccn3)s2)nn1` [telaglenastat, Telaglenastat], which “Best overall response: Partial response” value [1] is on record?
Its value is 1 (1.7).

What about the “Best overall response: Progressive disease” value [1] of the same compound?
The value was 33 (56.9).

And the “Best overall response: Stable disease” value [1]?
Its value is 24 (41.4).

And the objective responses (BID or TID dose escalation cohorts)?
Its objective responses is “No objective responses”.

And the “patients with time on study ≥6 months” value (SDs across different tumor types)?
The value was 12 patients.

What about the “patients with PR” value (dose expansion (in an RCC patient)) of the same compound?
The value was 1/58.

What about the “patients with SD” value (dose expansion, 24/58) of the same compound?
The value was 41.4%.

And the “patients with PD” value (dose expansion, 33/58)?
The value was 56.9%.
